Assay results from US8933230B2, “Phosphorus-containing group-substituted quinoline, its preparation process, medical composition containing the compounds and application” (priority 2011, dated 2015).

Legend:
Experiment in all cases: KinomeScan kinase panel
Assay type in all cases: binding
[1] = biological target: T1, ABL1(H396P)-nonphosphorylated (Homo sapiens, UniProt P00519, H396P)
T1 construct: purchased DiscoveRx Corporation (KinomeScan)
In short: (§1)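 Tested at 1000 nM in the KinomeScan 442-kinase competition binding panel, with inhibition of each kinase or mutant reported at that single concentration.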

BRAF(V600E) = biological target: T2, BRAF(V600E) (Homo sapiens, UniProt P15056, V600E)
T2 construct: purchased DiscoveRx Corporation (KinomeScan)
In short: as §1

CDK2 = biological target: T3, CDK2 (Homo sapiens, UniProt P24941)
T3 construct: purchased DiscoveRx Corporation (KinomeScan)
In short: as §1

CDK4-cyclinD1 = biological target: T4, CDK4-cyclinD1 (Homo sapiens, UniProt P11802)
T4 construct: purchased DiscoveRx Corporation (KinomeScan)
In short: as §1

CDK5 = biological target: T5, CDK5 (Homo sapiens, UniProt Q00535)
T5 construct: purchased DiscoveRx Corporation (KinomeScan)
In short: as §1

CDK7 = biological target: T6, CDK7 (Homo sapiens, UniProt P50613)
T6 construct: purchased DiscoveRx Corporation (KinomeScan)
In short: as §1

CDK9 = biological target: T7, CDK9 (Homo sapiens, UniProt P50750)
T7 construct: purchased DiscoveRx Corporation (KinomeScan)
In short: as §1

CLK3 = biological target: T8, CLK3 (Homo sapiens, UniProt P49761)
T8 construct: purchased DiscoveRx Corporation (KinomeScan)
In short: as §1

DCAMKL1 = biological target: T9, DCAMKL1 (Homo sapiens, UniProt O15075)
T9 construct: purchased DiscoveRx Corporation (KinomeScan)
In short: as §1

EGFR(G719S) = biological target: T10, EGFR(G719S) (Homo sapiens, UniProt P00533, G719S)
T10 construct: purchased DiscoveRx Corporation (KinomeScan)
In short: as §1

EGFR(L747-T751del,Sins) = biological target: T11, EGFR(L747-T751del,Sins) (Homo sapiens, UniProt P00533, DEL747-750/T751S)
T11 construct: purchased DiscoveRx Corporation (KinomeScan)
In short: as §1

FGFR4 = biological target: T12, FGFR4 (Homo sapiens, UniProt P22455)
T12 construct: purchased DiscoveRx Corporation (KinomeScan)
In short: as §1

GRK7 = biological target: T13, GRK7 (Homo sapiens, UniProt Q8WTQ7)
T13 construct: purchased DiscoveRx Corporation (KinomeScan)
In short: as §1

HIPK3 = biological target: T14, HIPK3 (Homo sapiens, UniProt Q9H422)
T14 construct: purchased DiscoveRx Corporation (KinomeScan)
In short: as §1

IRAK1 = biological target: T15, IRAK1 (Homo sapiens, UniProt P51617)
T15 construct: purchased DiscoveRx Corporation (KinomeScan)
T15 sequence (P51617 whole entry): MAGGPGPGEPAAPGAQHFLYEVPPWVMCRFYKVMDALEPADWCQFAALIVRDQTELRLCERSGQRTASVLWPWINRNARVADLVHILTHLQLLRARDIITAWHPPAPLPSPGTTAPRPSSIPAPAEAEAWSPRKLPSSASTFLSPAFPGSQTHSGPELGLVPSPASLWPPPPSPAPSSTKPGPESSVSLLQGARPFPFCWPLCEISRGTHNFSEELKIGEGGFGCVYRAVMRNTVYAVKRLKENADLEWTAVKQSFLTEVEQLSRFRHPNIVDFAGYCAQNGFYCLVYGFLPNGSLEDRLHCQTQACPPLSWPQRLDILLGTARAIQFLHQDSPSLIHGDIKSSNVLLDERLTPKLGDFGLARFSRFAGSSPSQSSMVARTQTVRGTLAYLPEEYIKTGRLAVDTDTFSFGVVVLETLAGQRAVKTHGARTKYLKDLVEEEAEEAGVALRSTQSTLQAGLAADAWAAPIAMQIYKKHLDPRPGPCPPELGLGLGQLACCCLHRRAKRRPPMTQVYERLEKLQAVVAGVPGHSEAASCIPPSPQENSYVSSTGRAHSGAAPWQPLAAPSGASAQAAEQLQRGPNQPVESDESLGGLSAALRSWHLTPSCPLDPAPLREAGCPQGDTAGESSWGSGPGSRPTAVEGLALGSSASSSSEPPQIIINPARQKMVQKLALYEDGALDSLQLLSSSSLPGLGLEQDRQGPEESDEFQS
In short: as §1

LRRK2(G2019S) = biological target: T16, LRRK2(G2019S) (Homo sapiens, UniProt Q5S007, G2019S)
T16 construct: purchased DiscoveRx Corporation (KinomeScan)
T16 sequence (Q5S007 whole entry G2019S): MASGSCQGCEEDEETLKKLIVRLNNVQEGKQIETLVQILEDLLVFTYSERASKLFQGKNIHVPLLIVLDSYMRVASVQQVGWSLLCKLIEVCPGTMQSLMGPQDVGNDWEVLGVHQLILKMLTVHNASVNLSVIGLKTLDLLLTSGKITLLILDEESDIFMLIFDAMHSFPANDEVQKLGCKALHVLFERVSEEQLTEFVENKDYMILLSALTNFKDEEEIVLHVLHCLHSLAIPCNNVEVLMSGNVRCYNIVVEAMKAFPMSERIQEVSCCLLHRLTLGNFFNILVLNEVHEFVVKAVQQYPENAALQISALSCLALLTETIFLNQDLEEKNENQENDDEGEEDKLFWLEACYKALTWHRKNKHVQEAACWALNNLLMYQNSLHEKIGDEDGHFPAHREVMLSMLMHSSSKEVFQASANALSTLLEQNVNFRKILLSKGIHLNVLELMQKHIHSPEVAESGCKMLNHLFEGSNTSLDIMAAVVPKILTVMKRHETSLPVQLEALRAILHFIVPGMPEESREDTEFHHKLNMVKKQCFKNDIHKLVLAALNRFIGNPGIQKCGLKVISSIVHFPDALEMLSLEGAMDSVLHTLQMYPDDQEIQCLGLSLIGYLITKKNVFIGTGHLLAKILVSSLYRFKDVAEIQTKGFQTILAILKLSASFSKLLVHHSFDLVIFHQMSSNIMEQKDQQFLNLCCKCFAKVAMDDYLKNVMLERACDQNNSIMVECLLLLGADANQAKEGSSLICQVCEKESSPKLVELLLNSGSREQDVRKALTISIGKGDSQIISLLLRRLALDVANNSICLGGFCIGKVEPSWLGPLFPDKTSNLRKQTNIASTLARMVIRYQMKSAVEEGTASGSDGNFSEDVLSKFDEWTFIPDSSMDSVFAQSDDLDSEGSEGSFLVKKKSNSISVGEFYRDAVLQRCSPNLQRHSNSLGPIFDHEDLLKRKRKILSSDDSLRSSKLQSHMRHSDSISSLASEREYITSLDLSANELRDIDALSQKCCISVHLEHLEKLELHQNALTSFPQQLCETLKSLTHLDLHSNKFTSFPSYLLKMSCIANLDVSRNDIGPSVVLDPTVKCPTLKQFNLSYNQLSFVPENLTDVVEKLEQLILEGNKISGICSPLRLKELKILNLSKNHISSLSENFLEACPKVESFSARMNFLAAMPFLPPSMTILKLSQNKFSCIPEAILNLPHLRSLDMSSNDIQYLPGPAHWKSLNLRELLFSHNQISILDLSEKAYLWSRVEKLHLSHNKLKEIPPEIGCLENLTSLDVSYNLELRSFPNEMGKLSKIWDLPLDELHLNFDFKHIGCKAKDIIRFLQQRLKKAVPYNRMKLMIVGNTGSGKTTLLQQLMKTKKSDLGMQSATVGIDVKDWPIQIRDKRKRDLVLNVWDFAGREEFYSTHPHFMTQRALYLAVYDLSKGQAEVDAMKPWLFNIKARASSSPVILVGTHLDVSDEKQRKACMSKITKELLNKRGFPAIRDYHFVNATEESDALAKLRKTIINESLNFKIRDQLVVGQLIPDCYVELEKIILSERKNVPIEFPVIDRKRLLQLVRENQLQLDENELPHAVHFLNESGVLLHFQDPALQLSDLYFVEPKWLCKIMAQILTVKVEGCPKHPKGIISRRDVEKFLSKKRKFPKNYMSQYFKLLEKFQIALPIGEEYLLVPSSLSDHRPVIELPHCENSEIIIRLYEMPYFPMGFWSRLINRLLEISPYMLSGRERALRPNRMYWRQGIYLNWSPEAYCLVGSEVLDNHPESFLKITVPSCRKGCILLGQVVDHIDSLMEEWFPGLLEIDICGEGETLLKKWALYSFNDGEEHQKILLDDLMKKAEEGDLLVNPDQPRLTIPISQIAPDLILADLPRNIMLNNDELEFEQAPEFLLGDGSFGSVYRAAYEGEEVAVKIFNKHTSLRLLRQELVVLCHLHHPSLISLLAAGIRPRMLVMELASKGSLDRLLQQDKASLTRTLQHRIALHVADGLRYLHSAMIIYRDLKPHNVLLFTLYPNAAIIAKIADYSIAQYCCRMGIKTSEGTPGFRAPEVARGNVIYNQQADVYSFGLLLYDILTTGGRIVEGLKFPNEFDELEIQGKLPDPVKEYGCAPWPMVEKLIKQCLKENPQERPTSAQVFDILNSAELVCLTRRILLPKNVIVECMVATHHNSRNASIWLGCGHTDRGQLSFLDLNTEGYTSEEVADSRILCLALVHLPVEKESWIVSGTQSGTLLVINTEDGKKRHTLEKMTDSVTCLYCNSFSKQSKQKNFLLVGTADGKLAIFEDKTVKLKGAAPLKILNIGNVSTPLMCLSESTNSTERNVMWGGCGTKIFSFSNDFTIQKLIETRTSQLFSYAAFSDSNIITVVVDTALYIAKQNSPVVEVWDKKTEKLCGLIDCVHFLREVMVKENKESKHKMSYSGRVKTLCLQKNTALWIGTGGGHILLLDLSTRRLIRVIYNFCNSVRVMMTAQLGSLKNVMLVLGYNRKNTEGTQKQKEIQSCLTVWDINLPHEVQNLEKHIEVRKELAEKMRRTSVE
In short: as §1

MAK = biological target: T17, MAK (Homo sapiens, UniProt P20794)
T17 construct: purchased DiscoveRx Corporation (KinomeScan)
T17 sequence (P20794 whole entry): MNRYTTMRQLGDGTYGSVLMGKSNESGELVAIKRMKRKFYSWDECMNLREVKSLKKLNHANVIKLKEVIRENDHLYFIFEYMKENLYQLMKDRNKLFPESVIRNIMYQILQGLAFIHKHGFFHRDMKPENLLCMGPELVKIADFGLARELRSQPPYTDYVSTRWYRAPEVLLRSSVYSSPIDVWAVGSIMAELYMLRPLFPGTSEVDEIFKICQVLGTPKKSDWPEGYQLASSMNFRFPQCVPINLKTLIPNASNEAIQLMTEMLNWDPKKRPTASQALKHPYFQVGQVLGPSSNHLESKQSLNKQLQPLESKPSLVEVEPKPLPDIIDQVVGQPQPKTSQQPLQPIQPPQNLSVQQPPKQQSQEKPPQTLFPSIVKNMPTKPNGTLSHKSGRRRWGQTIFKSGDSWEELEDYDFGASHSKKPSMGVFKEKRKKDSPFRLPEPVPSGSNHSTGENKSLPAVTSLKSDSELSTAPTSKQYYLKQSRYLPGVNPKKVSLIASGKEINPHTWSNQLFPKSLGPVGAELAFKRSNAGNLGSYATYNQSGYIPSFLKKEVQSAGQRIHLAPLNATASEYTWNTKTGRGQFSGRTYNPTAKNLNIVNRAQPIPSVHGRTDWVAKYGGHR
In short: as §1

MAP4K3 = biological target: T18, MAP4K3 (Homo sapiens, UniProt Q8IVH8)
T18 construct: purchased DiscoveRx Corporation (KinomeScan)
In short: as §1

MAP4K4 = biological target: T19, MAP4K4 (Homo sapiens, UniProt O95819)
T19 construct: purchased DiscoveRx Corporation (KinomeScan)
T19 sequence (O95819 whole entry): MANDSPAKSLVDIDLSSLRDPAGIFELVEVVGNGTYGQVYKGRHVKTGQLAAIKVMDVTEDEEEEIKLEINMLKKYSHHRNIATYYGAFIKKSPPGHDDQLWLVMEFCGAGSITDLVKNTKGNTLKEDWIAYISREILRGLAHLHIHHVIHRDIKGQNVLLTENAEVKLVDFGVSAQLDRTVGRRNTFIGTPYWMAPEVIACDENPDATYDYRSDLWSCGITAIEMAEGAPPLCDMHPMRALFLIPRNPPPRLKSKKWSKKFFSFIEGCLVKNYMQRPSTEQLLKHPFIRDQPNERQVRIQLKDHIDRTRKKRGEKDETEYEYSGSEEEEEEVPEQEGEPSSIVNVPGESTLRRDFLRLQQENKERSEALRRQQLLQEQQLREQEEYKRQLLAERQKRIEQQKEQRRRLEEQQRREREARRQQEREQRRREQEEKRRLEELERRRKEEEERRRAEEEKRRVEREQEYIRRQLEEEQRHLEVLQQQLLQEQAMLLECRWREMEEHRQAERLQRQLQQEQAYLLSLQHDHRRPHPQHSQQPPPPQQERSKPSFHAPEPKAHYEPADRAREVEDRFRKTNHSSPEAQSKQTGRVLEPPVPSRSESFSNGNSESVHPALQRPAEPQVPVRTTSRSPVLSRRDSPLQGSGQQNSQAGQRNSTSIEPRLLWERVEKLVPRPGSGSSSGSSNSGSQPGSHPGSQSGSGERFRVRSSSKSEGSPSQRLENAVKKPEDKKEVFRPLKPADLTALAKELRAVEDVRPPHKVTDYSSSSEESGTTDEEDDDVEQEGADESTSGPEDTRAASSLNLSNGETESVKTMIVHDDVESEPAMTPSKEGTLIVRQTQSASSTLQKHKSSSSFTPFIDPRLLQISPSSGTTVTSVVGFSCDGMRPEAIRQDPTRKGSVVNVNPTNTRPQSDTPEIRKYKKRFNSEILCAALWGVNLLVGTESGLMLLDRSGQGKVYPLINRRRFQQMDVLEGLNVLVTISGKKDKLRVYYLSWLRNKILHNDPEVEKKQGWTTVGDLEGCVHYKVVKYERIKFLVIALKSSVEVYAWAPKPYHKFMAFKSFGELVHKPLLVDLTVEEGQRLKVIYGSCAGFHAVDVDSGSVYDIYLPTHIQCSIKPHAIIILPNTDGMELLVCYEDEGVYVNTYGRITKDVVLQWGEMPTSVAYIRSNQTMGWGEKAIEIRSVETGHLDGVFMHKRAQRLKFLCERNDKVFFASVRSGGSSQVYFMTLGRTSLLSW
In short: as §1

MAST1 = biological target: T20, MAST1 (Homo sapiens, UniProt Q9Y2H9)
T20 construct: purchased DiscoveRx Corporation (KinomeScan)
In short: as §1

MINK = biological target: T21, MINK (Homo sapiens, UniProt Q8N4C8)
T21 construct: purchased DiscoveRx Corporation (KinomeScan)
In short: as §1

MTOR = biological target: T22, MTOR (Homo sapiens, UniProt P42345)
T22 construct: purchased DiscoveRx Corporation (KinomeScan)
In short: as §1

NEK4 = biological target: T23, NEK4 (Homo sapiens, UniProt P51957)
T23 construct: purchased DiscoveRx Corporation (KinomeScan panel)
In short: as §1

PDGFRA = biological target: T24, PDGFRA (Homo sapiens, UniProt P16234)
T24 construct: purchased DiscoveRx Corporation (KinomeScan panel)
In short: as §1

PIK3C2B = biological target: T25, PIK3C2B (Homo sapiens, UniProt O00750)
T25 construct: purchased DiscoveRx Corporation (KinomeScan)
In short: as §1

PIM2 = biological target: T26, PIM2 (Homo sapiens, UniProt Q9P1W9)
T26 construct: purchased DiscoveRx Corporation (KinomeScan)
In short: as §1

PKN1 = biological target: T27, PKN1 (Homo sapiens, UniProt Q16512)
T27 construct: purchased DiscoveRx Corporation (KinomeScan)
In short: as §1

RAF1 = biological target: T28, RAF1 (Homo sapiens, UniProt P04049)
T28 construct: purchased DiscoveRx Corporation
In short: as §1

RET = biological target: T29, RET (Homo sapiens, UniProt P07949)
T29 construct: purchased DiscoveRx Corporation
In short: as §1

SRPK2 = biological target: T30, SRPK2 (Homo sapiens, UniProt P78362)
T30 construct: purchased DiscoveRx Corporation (KinomeScan)
In short: as §1

SRPK3 = biological target: T31, SRPK3 (Homo sapiens, UniProt Q9UPE1)
T31 construct: purchased DiscoveRx Corporation (KinomeScan)
In short: as §1

SgK110 = biological target: T32, SgK110 (Homo sapiens, UniProt P0C264)
T32 construct: purchased DiscoveRx Corporation (KinomeScan)
In short: as §1

TNNI3K = biological target: T33, TNNI3K (Homo sapiens, UniProt Q59H18)
T33 construct: purchased DiscoveRx Corporation (KinomeScan)
In short: as §1

[2] = biological target: T34, TYK2(JH1domain-pseudokinase) (Homo sapiens, UniProt P29597)
T34 construct: pseudokinase; purchased DiscoveRx Corporation (KinomeScan service)
In short: as §1

YSK4 = biological target: T35, YSK4 (Homo sapiens, UniProt Q56UN5)
T35 construct: purchased DiscoveRx Corporation (KinomeScan service)
In short: as §1

CCOP(=O)(CN1CCC(COc2cc3nccc(Oc4ccc(NC(=O)C5(C(=O)Nc6ccc(F)cc6)CC5)cc4F)c3cc2OC)CC1)OCC [Example 10, N1-[4-[[7-[[1-(diethoxyphosphorylmethyl)-4-piperidinyl]methoxyl]-6-methoxyl-4-quinolyl]oxyl]-3-fluorophenyl]-N1′-(4-fluorophenyl)cyclopropane-1,1-dicarboxamide]
% Ctrl@1000 nM [1]: 1.9 % Ctrl
% Ctrl@1000 nM (BRAF(V600E)): 100 % Ctrl
% Ctrl@1000 nM (CDK2): 100 % Ctrl
% Ctrl@1000 nM (CDK4-cyclinD1): 100 % Ctrl
% Ctrl@1000 nM (CDK5): 100 % Ctrl
% Ctrl@1000 nM (CDK7): 15 % Ctrl
% Ctrl@1000 nM (CDK9): 100 % Ctrl
% Ctrl@1000 nM (CLK3): 100 % Ctrl
% Ctrl@1000 nM (DCAMKL1): 91 % Ctrl
% Ctrl@1000 nM (EGFR(G719S)): 81 % Ctrl
% Ctrl@1000 nM (EGFR(L747-T751del,Sins)): 72 % Ctrl
% Ctrl@1000 nM (FGFR4): 100 % Ctrl
% Ctrl@1000 nM (GRK7): 100 % Ctrl
% Ctrl@1000 nM (HIPK3): 66 % Ctrl
% Ctrl@1000 nM (IRAK1): 100 % Ctrl
% Ctrl@1000 nM (LRRK2(G2019S)): 100 % Ctrl
% Ctrl@1000 nM (MAK): 100 % Ctrl
% Ctrl@1000 nM (MAP4K3): 20 % Ctrl
% Ctrl@1000 nM (MAP4K4): 100 % Ctrl
% Ctrl@1000 nM (MAST1): 100 % Ctrl
% Ctrl@1000 nM (MINK): 100 % Ctrl
% Ctrl@1000 nM (MTOR): 100 % Ctrl
% Ctrl@1000 nM (NEK4): 100 % Ctrl
% Ctrl@1000 nM (PDGFRA): 1.8 % Ctrl
% Ctrl@1000 nM (PIK3C2B): 100 % Ctrl
% Ctrl@1000 nM (PIM2): 67 % Ctrl
% Ctrl@1000 nM (PKN1): 100 % Ctrl
% Ctrl@1000 nM (RAF1): 100 % Ctrl
% Ctrl@1000 nM (RET): 0.1 % Ctrl
% Ctrl@1000 nM (SRPK2): 100 % Ctrl
% Ctrl@1000 nM (SRPK3): 100 % Ctrl
% Ctrl@1000 nM (SgK110): 100 % Ctrl
% Ctrl@1000 nM (TNNI3K): 94 % Ctrl
% Ctrl@1000 nM [2]: 100 % Ctrl
% Ctrl@1000 nM (YSK4): 1.7 % Ctrl
